Assay results: US8980932B2, “Cancer targeting using carbonic anhydrase isoform IX inhibitors” (Stichting Maastricht Radiation Oncology “Maastro-Clinic”, priority 2010, dated 2015)
Like-named read-outs stand apart in the source and are kept apart here.

Columns and labels:
hCA IX = hCA IX (Homo sapiens (Human), UniProt Q16790); experiment: CA-catalyzed CO2 hydration stopped-flow inhibition assay, hCA IX
Method: The uncatalyzed rates were determined in the same manner and subtracted from the total observed rates. Stock solutions of inhibitor (1 mM) were prepared in distilled-deionized water with 10-20% (v/v) DMSO (which is not inhibitory at these concentrations) and dilutions up to 0.1 nM were done thereafter with distilled-deionized water. Inhibitor and enzyme solutions were preincubated together for 15 min at room temperature prior to assay, in order to allow for the formation of CA IX-inhibitor complex. The inhibition constants were obtained by non-linear last-squares methods using PRISM 3 and represent the mean from at least three different determinations.

[1] = tested on: cervical (HeLa) carcinoma cell line; experiment: Extracellular acidification (delta pH of medium) in HeLa cells; type: cell-based, human
Method: (§1) The experiment was set up as previously described (Dubois et al, 2007). A colorectal (HT-29) (FIG. 5a) and a cervical (HeLa) (FIG. 5b) carcinoma cell line were tested in normoxic (ambient oxygen concentration) and hypoxic (0.2% oxygen) conditions. HT-29 cells are known to be constitutive hypoxia inducible CA IX (CA IX expression under normoxia and increased CA IX expression upon hypoxia) expressing cells. Therefore, compounds were added after 1 h of hypoxic exposure (to ensure active CA IX) and incubation was done for another 23 h (total of 24 h hypoxia). HeLa cells are hypoxia inducible (at lower density) CA IX expressing cells. Therefore, HeLa were first incubated for 24 h hypoxia to ensure CA IX expression in the first place (time point assessed in time series experiments). Afterwards, compounds were added and cells were incubated for another 24 h.
(§2) Experiments were performed in triplicate for each condition. The described conditions were done both for HT-29 and HeLa under normoxic and hypoxic conditions.
(§3) Following conditions were assessed: • Blank 1 mM or 0.1 mM (no addition of compound, only DMSO/PBS) • DH307 1 mM or 0.1 mM • DH310 1 mM or 0.1 mM • DH338 1 mM or 0.1 mM • DH348 1 mM or 0.1 mM • S=AEBS (4-(2-aminoethylbenzenesulfonamide); Sigma) 1 mM or 0.1 mM (known to reduce extracellular pH as described by (Svastova et al, 2004))
(§4) Cells were seeded in 6 cm dishes (HT-29: 10e6; HeLa: 4×10^5: to compensate for cell size) in 5 ml of DMEM supplemented with 10% FCS. The day after, medium was replaced by 3.6 ml of freshly prepared DMEM/FCS 10%, from which the pH was measured=pH at incubation), after which dishes were placed in the hypoxic chamber (normoxic dishes remained at ambient air in the incubator: 37° C., 95% humidity, 5% CO2). Compounds were added (1 h for HT-29 or 24 h for HeLa after start hypoxic exposure) to have a final concentration of 1 mM or 0.1 mM, by adding 400 μl to the dishes, starting from a 10 or 1 mM stock (DMSO final concentration 0.1%). Blanc controls received DMSO/PBS without compound. pH of the medium was measured after 24 h (HT-29) or 48 h (HeLa) inside the hypoxic chamber after calibration of the electrode to reduced oxygen concentrations. Delta pH (pH at end hypoxic exposure−pH of replacement medium before incubation) were calculated and shown in the graph of FIGS. 5a and 5b.

[2] = tested on: colorectal (HT-29) carcinoma cell line; experiment: Extracellular acidification (delta pH of medium) in HT-29 cells; type: cell-based; conditions: for reduction of extracellular acidification: HT-29, hypoxia (0.2% oxygen)
Method: as §1, §2, §3, §4

[3] = read-out: KI hCA IX, stopped-flow CO2 hydration, pH 7.5, 15 min preincubation

Molecule | Ki (hCA IX; [3]) [nM] | melting point [°C] | reduction of extracellular acidification ([2]; 1 mM) | also measured
NS(=O)(=O)c1ccc(NC(=O)Cn2ccnc2[N+](=O)[O-])cc1 [Compound 4a, 2-(2-nitro-imidazol-1-yl)-N-(4-sulfamoylphenyl)acetamide] | 70 | 163 to 165 |  | 
NS(=O)(=O)c1cccc(NC(=O)Cn2ccnc2[N+](=O)[O-])c1 [Compound 4b, 2-(2-nitro-imidazol-1-yl)-N-(3-sulfamoylphenyl)acetamide] |  | 195 to 197 |  | 
NS(=O)(=O)c1ccc(CCNC(=O)Cn2ccnc2[N+](=O)[O-])cc1 [Compound 4d, 2-(2-nitro-imidazol-1-yl)-N-[2-(4-sulfamoylphenyl)ethyl]acetamide] |  | 139 to 141 |  | Ki (hCA IX): 7.3 nM
Cc1ncc([N+](=O)[O-])n1CCNC(=S)Nc1ccc(S(N)(=O)=O)cc1 [Compound 6a, N-(4-sulfamoylphenyl)-N-((2-aminoethyl)-2-methyl-5-nitroimidazolyl)thiourea] | 7.3 |  |  | 
Cc1ncc([N+](=O)[O-])n1CCNC(=S)NCc1ccc(S(N)(=O)=O)cc1 [Compound 6c, N-(4-sulfamoylbenzyl)-N-((2-aminoethyl)-2-methyl-5-nitroimidazolyl)thiourea] | 8.3 |  |  | reduction of extracellular acidification ([1]; hypoxia (0.2% oxygen), 0.1 mM): strong reduction; reduction of extracellular acidification ([1]; hypoxia (0.2% oxygen), 1 mM): made the medium alkaline
Cc1ncc([N+](=O)[O-])n1CCNC(=S)NCCc1ccc(S(N)(=O)=O)cc1 [Compound 6d, N-(4-sulfamoylphenylethyl)-N-((2-aminoethyl)-2-methyl-5-nitroimidazolyl)thiourea] | 7.8 |  |  | 
Cc1ncc([N+](=O)[O-])n1CCNS(N)(=O)=O [Compound 7, N-[2-(2-methyl-5-nitro-imidazol-1-yl)ethyl]sulfamide] |  | 122 | best results | reduction of extracellular acidification ([1]; hypoxia, concentration not specified): best results; reduction of extracellular acidification ([2]; 0.1 mM): additional reduction compared with the other compounds
NCCc1ccc(S(N)(=O)=O)cc1 [S, 4-(2-aminoethylbenzenesulfonamide), reference compound] |  |  | effectively reduced the extracellular acidification | reduction of extracellular acidification ([1]; hypoxia (0.2% oxygen), 0.1 mM): less; reduction of extracellular acidification ([1]; hypoxia (0.2% oxygen), 1 mM): effectively reduced the extracellular acidification; effect on extracellular acidification upon normoxic exposure ([1]; normoxia): No effect; reduction of extracellular acidification ([2]; 0.1 mM): less; effect on extracellular acidification upon normoxic exposure ([2]; HT-29, normoxia): No effect
N-[2-(2-methyl-5-nitro-imidazol-1-yl)ethyl]sulfamate [Compound 9] |  |  | best results | 
